Experiments:
[1] = Size and polydispersity index (PDI) of the lipid nanoparticle by dynamic light scattering; format: physicochemical; settings: LNP encapsulating eGFP mRNA, ionizable lipid/DOPE/cholesterol/DMG-PEG2000 50/10/48.25/1.25 mol%, N/P 12; for Particle size: in nm (unit assumed)
Procedure: (§1) The ionizable lipid compound and positive control 1 from Example I were dissolved in ethanol at a molar ratio of 50:10:48.25:1.25 with DOPE, cholesterol, and DMG-PEG2000 (all purchased from A.V.T (Shanghai) Pharmaceutical Co., Ltd.) to prepare an ethanol lipid solution. The enhanced green fluorescent protein (eGFP) mRNA was diluted in 20 mM citrate buffer (pH=6.1) to obtain an mRNA aqueous solution. By using a microfluidic device (Micro&Nano Biologics Co., Ltd., model: INano ™ L) mix ethanol lipid solution and mRNA aqueous solution in a volume ratio of 1:3 to prepare a lipid nanoparticle with a total lipid to mRNA N/P ratio of 12. The medium was replaced by ultrafiltration, ethanol was removed and volumed with DPBS. Finally, the lipid nanoparticle was filtered through a 0.2 µm sterile filter to obtain an LNP preparation encapsulating eGFP mRNA using ionizable lipid/DOPE/cholesterol/DMG-PEG2000 (50/10/48.25/1.25 mol%), with an mRNA content of 0.002 mg/ml-0.5 mg/mL.
(§2) Using Malvern Zetasizer Nano ZS (Malvern UK), the size and polydispersity index (PDI) of the lipid nanoparticle were determined by dynamic light scattering in 173° backscatter detection mode, and the encapsulation efficiency was measured by Ribogreen method.

[2] = Encapsulation efficiency of the lipid nanoparticle (eGFP mRNA) by Ribogreen method; format: physicochemical; settings: LNP encapsulating eGFP mRNA, ionizable lipid/DOPE/cholesterol/DMG-PEG2000 50/10/48.25/1.25 mol%, N/P 12
Procedure: as §1, §2

[3] = system: DC2.4 cells; test: In vitro transfection of cells with eGFP-mRNA lipid nanoparticle (LNP preparation), fluorescence imaging and flow cytometry; format: cell-based, mouse; settings: for Cell viability, % / Positive rate, %: DC2.4 cells, 200 ng of mRNA per well, after 24 hours; for Positive rate, %: eGFP positivity rate; for Mean fluorescence intensity: eGFP-mRNA expression on DC2.4 after 24 hours, normalized based on Example 11
From the text: (§3) This example used mouse bone marrow-derived dendritic cells DC2.4 (purchased from Millipore) as the validation cell line for a lipid nanoparticle transfection experiment. DC2.4 cells adhered to the wall for growth. All operational steps of cell culture strictly followed the prescribed procedures, using sterile reagents for aseptic operations under a sterile workbench. The main operational steps involved were as follows: • 1) Cell recovery: the preserved cell cryopreservation solution was removed from the -80 °C freezer and immediately placed in a 37 °C water bath for rapid and continuous shaking, allowing it to completely melt within one minute. Fresh culture medium was added to a 15 mL centrifuge tube in advance, and the cell fluid was added to the centrifuge tube in a biosafety cabinet. A centrifuge tube of the same mass was taken, placed symmetrically in the centrifuge, and centrifuged at low speed for 5 minutes at 1200 rpm. After centrifugation, the upper clear liquid was removed, and an appropriate amount of culture medium was slowly added along the tube wall. After the cells were gently blown and dispersed evenly, the cell suspension was drawn and added to the prepared culture bottle. The state and distribution of cells in the early stage of recovery were observed under a microscope. The culture bottle was incubated in a 5% CO2 incubator at 37 °C, and the recovery time was recorded. • 2) Cell passaging: Under a microscope, if the cell density in the field of view reached 80%-90%, cells could be passaged and cultured. Adherent cells required trypsin digestion. In order to avoid residual serum in the culture medium reducing trypsin activity, the original culture medium was removed, and DPBS solution was added to wash once. After suctioning out the DPBS solution, trypsin was added to degrade the protein at the intercellular junction, thereby separating the cells and facilitating further cultivation. The mixture was gently shaken well and placed into the incubator for digestion for 2-3 minutes. After digestion was complete, an appropriate amount of culture medium was immediately added to the original culture dish to terminate digestion. Finally, a pipette was used to carefully blow off the cells and blow them until they were evenly dispersed, and then the cells were inoculated and subcultured in a certain proportion according to experimental requirements.
(§4) Transfection of DC2.4 cells • 1) DC2.4 cell recovery: the frozen DC2.4 cells were taken out from the -80 °C refrigerator and immediately put into a 37 °C water bath for rapid thawing. After melting, they were added to the preheated culture medium, and centrifuged at 1200 rpm for 5 minutes. The supernatant was discarded, and an appropriate amount of DMEM medium containing 10% FBS was added to resuspend the recovered DC2.4 cells, which were placed in a 37 °C, 5% CO2 incubator for activation culture. • 2) According to experimental requirements, DC2.4 cells were transfected into 24 well plates one day in advance. By counting cells, the number and viability of cells were recorded, and a cell suspension with 2 × 10^5 cells per well were taken. Then, a certain volume of DMEM medium containing 10% FBS was added and mixed evenly, wherein 1 mL was added per well for subsequent transfection experiments. • 3) After 24 hours, the culture medium was gently aspirated with a pipette 30 minutes in advance, and each well was washed with 1 mL of DPBS and aspirated. […] The mixture was placed in a 37 °C, 5% CO2 incubator for activation cultivation. • 6) After 24 hours, cell viability (%), eGFP positivity rate (%), and mean fluorescence intensity data were obtained through cell fluorescence imaging and flow cytometry.

[4] = as above; format: cell-based, mouse; settings: mouse, dc2.4 cells, 200 ng of mRNA per well, after 24 hours; read-out: Cell viability, %
From the text: as §3, §4

Compound | PDI [1] | Encapsulation rate, % [2] [%] | Particle size [1] | Cell viability, % [3] [%] | Positive rate, % [3] [%] | Mean fluorescence intensity [3] | viability at 24 h [4] [%] | Cell viability, % ([3]; 1440 min) [%]
CCCCCCCCC(CCCCCCCC)OC(=O)CCCCCCCN(CCO)CCCN(CCCCCCCC(=O)OC(CCCCCCCC)CCCCCCCC)CCCCCCCC(=O)OC(CCCCCCCC)CCCCCCCC [Example 2, Di(heptadecane-9-yl)8,8'-((3-((8-(heptadecane-9-oxy)-8-oxooctyl)(2-hydroxyethyl)amino)propyl)azanediyl)dioctanoate] | 0.24 | 97.27 | – | – | 73.48 | – | 82.9 | –
CC(C)=CCC/C(C)=C/COC(=O)CCCCCCCN(CCO)CCCN(CCCCCCCC(=O)OC/C=C(\C)CCC=C(C)C)CCCCCCCC(=O)OC/C=C(\C)CCC=C(C)C [Example 3, Di((E)-3,7-dimethyloctan-2,6-dien-1-yl)8,8'-((3-((8-(((E)-3,7-dimethyloctan-2,6-dien-1-yl)oxo)-8-oxooctyl)(2-hydroxyethyl)amino)propyl)azanediyl)dioctanoate] | 0.12 | 95.96 | 92.13 | – | 93.43 | – | 68.6 | –
CCCCCCCOC(=O)CCCCCCCN(CCO)CCCN(CCCCCCCC(=O)OCCCCCCC)CCCCCCCC(=O)OCCCCCCC [Example 4, Diheptyl 8,8'-((3-((8-(heptyloxy)-8-oxooctyl)(2-hydroxyethyl)amino)propyl)azanediyl)dioctanoate] | 0.25 | 60.89 | – | – | 78.26 | – | 75.9 | –
CCCCCOC(=O)CCCCCCCN(CCO)CCCN(CCCCCCCC(=O)OCCCCC)CCCCCCCC(=O)OCCCCC [Example 5, Dipentyl 8,8'-((3-((2-hydroxyethyl)(8-oxo-8-(pentyloxy)octyl)amino)propyl)azanediyl)dioctanoate] | 0.16 | 94.14 | – | – | 83.41 | – | 86.6 | –
CCCCCCCCCCCOC(=O)CCCCN(CCO)CCCN(CCCCC(=O)OCCCCCCCCCCC)CCCCC(=O)OCCCCCCCCCCC [Example 38, Diundecyl 5,5'-((3-((2-hydroxyethyl)(5-oxo-5-(undecyloxy)pentyl)amino)propyl)azadiyl)dipentanoate] | 0.10 | 99.04 | 65.19 | – | 90.28 | – | – | 94.1
CCCCC/C=C\C/C=C\CCCCCCCCOC(=O)CCCCCCCN(CCO)CCCN(CCCCCCCC(=O)OCCCCCCCC/C=C\C/C=C\CCCCC)CCCCCCCC(=O)OCCCCCCCC/C=C\C/C=C\CCCCC [Example 79] | 70.67 | 99.80 | 99.80 | – | 95.05 | – | – | 95.0
CCCCCCCCCCCCOC(=O)CCCN(CCCO)CCCCN(CCCC(=O)OCCCCCCCCCCCC)CCCC(=O)OCCCCCCCCCCCC [Example 84] | 0.11 | 97.58 | 89.72 | – | 96.42 | – | – | 90.2
Tetratridecyl 8,8',8",8"-(((3-hydroxypropyl)azadiyl)di(propane-3,1-diyl))di(azanetriyl)tetraoctanoate [Example 99] | 0.26 | 69.17 | – | 93.2 | 77.44 | 0.49 | – | –

Second part, led by results:

PDI [1] | Encapsulation rate, % [2] [%] | Particle size [1] | Compound | Cell viability, % [3] [%] | Positive rate, % [3] [%] | Mean fluorescence intensity [3] | viability at 24 h [4] [%] | Cell viability, % ([3]; 1440 min) [%]
0.24 | 66.08 | – | 4,4'-(3-(((2-hydroxyethyl)((E)-4-oxo-4-(undecyloxy)but-2-en-1-yl)amino)propyl)azadiyl)(2E,2'E)-di(but-2-enoic acid) [Example 105] | 95.8 | 78.32 | 0.39 | – | –
0.12 | 93.93 | 94.58 | 4,4'-didecyl((4-(decyloxy)-4-oxobutyl)(3-hydroxypropyl)amino)butyl)azetidinyl)dibutanoate [Example 102] | 94.6 | 93.18 | 1.28 | – | –
0.13 | 93.34 | 89.25 | 8-((6Z,10Z,46Z,49Z)-30-(3-hydroxypropyl)-20,36-dioxo-26,30-diaza-19,37-dioxapentatriacontane-6,9,46,49-tetraen-26-yl)(7Z,10Z)-hexadec-7,10-dien-1-yl octanoate [Example 96] | 96.6 | 94.64 | 0.97 | – | –
0.10 | 93.32 | – | CCCCCCCCCCCCCOC(=O)CCCN(CCCO)CCCCN(CCCC(=O)OCCCCCCCCCCCCC)CCCC(=O)OCCCCCCCCCCCCC [Example 85, 4,4'-((4-((3-hydroxypropyl)(4-oxo-4-(tridecyloxy)butyl)amino)butyl)azetidinyl)dibutyric acid diester] | – | 96.2 | – | – | 95.9
0.14 | 94.33 | 84.42 | CCCCCCCCCCCCCOC(=O)CCCCCCCN(CCO)CCCN(CCCCCCCC(=O)OCCCCCCCCCCCCC)CCCCCCCC(=O)OCCCCCCCCCCCCC [Example 90, Tridecyl 8-(29-hydroxy-15-oxo-23-(8-oxo-8-(tridecyloxy)octyl)-23,27-diaza-14-oxanonacosane-27-yl)octanoate] | – | 92.38 | – | – | 91.6
0.24 | 79.63 | – | CCCCCCCCCCCOC(=O)CCCCCCCCCN(CCO)CCCN(CCCCCCCCCC(=O)OCCCCCCCCCCC)CCCCCCCCCC(=O)OCCCCCCCCCCC [Example 91, Undecyl 10-(29-hydroxy-13-oxo-23-(10-oxo-10-(undecyl)oxydecyl)-23,27-diaza-12-oxanonacosane-27-yl)caprate] | – | 62.74 | – | – | 91.4
0.28 | 76.22 | – | CCCCCC/C=C\COC(=O)CCCCCCCCCN(CCO)CCCN(CCCCCCCCCC(=O)OC/C=C\CCCCCC)CCCCCCCCCC(=O)OC/C=C\CCCCCC [Example 92, 10-((7Z)-27-hydroxy-21-(10-(((2Z)-non-2-enyl)oxy)-10-oxodecyl)-11-oxo-21,25-diaza-10-oxaheptacosane-7-en-25-yl)decanoic acid-(2Z)-non-2-en-1-yl ester] | – | 73.64 | – | – | 92.6
0.34 | 67.68 | – | CC/C=C\COC(=O)CCCCCCCN(CCO)CCCN(CCCCCCCC(=O)OC/C=C\CC)CCCCCCCC(=O)OC/C=C\CC [Example 97] | – | 83.64 | – | – | 90.5

From patent publication EP4678629A1, “IONIZABLE LIPID MOLECULE, PREPARATION METHOD THEREFOR AND USE THEREOF” (Maxirna (Shanghai) Pharmaceutical Co., Ltd., priority 2023, dated 2024)
